{"source": "PubChem BioAssay (NCI)", "assay_in_all_cases": "NCI tumour cell line growth inhibition, 48 h", "key": {"ACHN renal": {"system": "ACHN renal"}, "BT-549 breast": {"system": "BT-549 breast"}, "CAKI-1 renal": {"system": "CAKI-1 renal"}, "HCC-2998 colon": {"system": "HCC-2998 colon"}, "HOP-62 NSCLC": {"system": "HOP-62 NSCLC"}, "HOP-92 NSCLC": {"system": "HOP-92 NSCLC"}, "HS 578T breast": {"system": "HS 578T breast"}, "HT29 colon": {"system": "HT29 colon"}, "LOX IMVI melanoma": {"system": "LOX IMVI melanoma"}, "MALME-3M melanoma": {"system": "MALME-3M melanoma"}, "MCF7 breast": {"system": "MCF7 breast"}, "NCI-H23 lung": {"system": "NCI-H23 lung"}, "NCI/ADR-RES ovarian": {"system": "NCI/ADR-RES ovarian"}, "PC-3 prostate": {"system": "PC-3 prostate"}, "SF-268 CNS": {"system": "SF-268 CNS"}, "SF-295 CNS": {"system": "SF-295 CNS"}, "SK-OV-3 ovarian": {"system": "SK-OV-3 ovarian"}, "SNB-19 CNS": {"system": "SNB-19 CNS"}, "T-47D breast": {"system": "T-47D breast"}, "UO-31 renal": {"system": "UO-31 renal"}}, "note": "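Dose response: 5 concentrations. Exposure: 48 h. Format: 96-well plates. Endpoint: linear interpolation; highest concentration if not reached. TGI is the concentration that stops growth completely.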", "data": [{"compound": "COc1cc(-c2coc3c(OC)c(OC4OC(COC5OC(C)C(O)C(O)C5O)C(O)C(O)C4O)c(OC)c(O)c3c2=O)cc(C)c1O", "note": "(stereo not given)", "values": [{"measurement": "TGI", "setting": "ACHN renal", "result": 52.9, "unit": "µM"}, {"measurement": "TGI", "setting": "BT-549 breast", "result": 45.4, "unit": "µM"}, {"measurement": "TGI", "setting": "CAKI-1 renal", "result": 38.9, "unit": "µM"}, {"measurement": "TGI", "setting": "HCC-2998 colon", "result": 39.2, "unit": "µM"}, {"measurement": "TGI", "setting": "HOP-62 NSCLC", "result": 81.9, "unit": "µM"}, {"measurement": "TGI", "setting": "HOP-92 NSCLC", "result": 65, "unit": "µM"}, {"measurement": "TGI", "setting": "HS 578T breast", "result": 62.1, "unit": "µM"}, {"measurement": "TGI", "setting": "HT29 colon", "result": 43.5, "unit": "µM"}, {"measurement": "TGI", "setting": "LOX IMVI melanoma", "result": 45.3, "unit": "µM"}, {"measurement": "TGI", "setting": "MALME-3M melanoma", "result": 33.9, "unit": "µM"}, {"measurement": "TGI", "setting": "MCF7 breast", "result": 47.4, "unit": "µM"}, {"measurement": "TGI", "setting": "NCI-H23 lung", "result": 32.4, "unit": "µM"}, {"measurement": "TGI", "setting": "NCI/ADR-RES ovarian", "result": 52.5, "unit": "µM"}, {"measurement": "TGI", "setting": "PC-3 prostate", "result": 74.1, "unit": "µM"}, {"measurement": "TGI", "setting": "SF-268 CNS", "result": 62.2, "unit": "µM"}, {"measurement": "TGI", "setting": "SF-295 CNS", "result": 38, "unit": "µM"}, {"measurement": "TGI", "setting": "SK-OV-3 ovarian", "result": 60.3, "unit": "µM"}, {"measurement": "TGI", "setting": "SNB-19 CNS", "result": 30.3, "unit": "µM"}, {"measurement": "TGI", "setting": "T-47D breast", "result": 61.4, "unit": "µM"}, {"measurement": "TGI", "setting": "UO-31 renal", "result": 50.5, "unit": "µM"}]}]}
